Reference: patent publication US20080249081A1, “COMPOUNDS FOR THE TREATMENT OF PAIN AND SCREENING METHODS THEREFOR” (priority 2006, published 2008)

Experiments:
simian MrgX2 receptor = target: T1, simian MrgX2 receptor (Macaca mulatta, UniProt Q4QXU5); assay: Receptor Selection and Amplification Technology (R-SAT) functional assay, transfected NIH3T3 cells; type: cell-based, rhesus monkey; settings: for Monkey-MrgX2 Eff(%): percent maximal activation relative to STIA
T1 construct: expressed in transfected cells; host or cells: NIH3T3
T1 sequence (Q4QXU5 whole entry): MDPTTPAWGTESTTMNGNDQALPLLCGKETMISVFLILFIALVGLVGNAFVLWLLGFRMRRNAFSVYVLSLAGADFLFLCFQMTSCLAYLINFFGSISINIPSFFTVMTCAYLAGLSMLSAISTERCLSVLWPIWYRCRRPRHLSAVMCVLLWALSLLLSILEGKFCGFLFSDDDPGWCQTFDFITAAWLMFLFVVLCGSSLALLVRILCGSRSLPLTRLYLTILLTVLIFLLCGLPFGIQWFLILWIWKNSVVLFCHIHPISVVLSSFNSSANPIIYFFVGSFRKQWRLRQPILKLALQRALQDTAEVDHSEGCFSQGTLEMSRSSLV
Experimental: (§1) The functional receptor assay, Receptor Selection and Amplification Technology (R-SAT), was used to investigate the pharmacological properties of test compounds on MRGX1 or MRGX2 receptors. R-SAT is disclosed in U.S. Pat. Nos. 5,707,798, 5,912,132, and 5,955,281, each of which is incorporated by reference herein in its entirety, including any drawings.
(§2) Briefly, NIH3T3 cells were grown in 96-well tissue culture plates to 70-80% confluence. Cells were transfected for 16-20 h with plasmid DNAs using Polyfect (Qiagen Inc.) and the manufacturer's protocols. R-SATs were generally performed with 4 ng/well of receptor and 20 ng/well of β-galactosidase plasmid DNA. The human MrgX1, simian MrgX1, human MrgX2 and simian MrgX2 receptor genes were amplified by PCR from genomic DNA using oligodeoxynucleotide primers as described in U.S. patent application Ser. No. 11/359,209, which is incorporated by reference herein in its entirety, including any drawings. For large-scale transfections, cells were transfected for 16-20 h, then trypsinized and frozen in DMSO. Frozen cells were later thawed, plated at ˜10,000 cells per well of a 96 half-area well plate that contained test compound. With both methods, cells were then grown in a humidified atmosphere with 5% ambient CO2 for five days. The medium was then removed from the plates and marker gene activity was measured by the addition of the β-galactosidase substrate o-nitrophenyl β-D-galactopyranoside (ONPG, in PBS with 0.5% NP-40). The resulting […] reaction was measured in a spectrophotometric plate reader (Titertek Inc.) at 420 nm. All data were analyzed using the computer program XLFit (IDBSm). Efficacy is defined as the percent maximal activation compared to activation by a control compound (BAM22 in the case of human or simian MRGX1, STIA or Cortistatin-14 in the case of human or simian MRGX2). pEC50 is the negative of log(EC50), where EC50 is the calculated molar concentration of test compound that produces 50% of maximum activation.
(§3) Efficacy is reported relative to the ligands Bam22 for MrgX1 and STIA for MrgX2.

simian MrgX1 receptor = simian MrgX1 receptor (Macaca mulatta, UniProt A0A5F7ZSN8); assay: as above; type: cell-based, rhesus monkey; settings: percent maximal activation relative to Bam22, read-out: Monkey-MrgX1 Eff(%)
Sequence of simian MrgX1 receptor (A0A5F7ZSN8 1-322): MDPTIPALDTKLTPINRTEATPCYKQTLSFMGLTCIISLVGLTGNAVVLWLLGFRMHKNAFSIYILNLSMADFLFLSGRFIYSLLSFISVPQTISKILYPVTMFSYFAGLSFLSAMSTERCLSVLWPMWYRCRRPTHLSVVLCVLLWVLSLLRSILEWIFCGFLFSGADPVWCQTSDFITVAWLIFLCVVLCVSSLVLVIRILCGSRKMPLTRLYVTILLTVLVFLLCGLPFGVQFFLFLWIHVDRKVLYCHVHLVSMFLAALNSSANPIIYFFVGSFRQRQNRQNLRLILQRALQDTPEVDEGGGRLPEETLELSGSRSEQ
Experimental: as §1, §2, §3

human MrgX1 receptor [1] = target: T2, human MrgX1 receptor (Homo sapiens, UniProt Q96LB2); assay: Intracellular calcium mobilization (Fura-2) in transfected cells; type: cell-based; set-up: expressed in transfected cells; settings: for MrgX1 pEC50: human MrgX1; for MrgX1 Eff %: normalized to response to BAM22 (100%)
T2 sequence (Q96LB2 whole entry): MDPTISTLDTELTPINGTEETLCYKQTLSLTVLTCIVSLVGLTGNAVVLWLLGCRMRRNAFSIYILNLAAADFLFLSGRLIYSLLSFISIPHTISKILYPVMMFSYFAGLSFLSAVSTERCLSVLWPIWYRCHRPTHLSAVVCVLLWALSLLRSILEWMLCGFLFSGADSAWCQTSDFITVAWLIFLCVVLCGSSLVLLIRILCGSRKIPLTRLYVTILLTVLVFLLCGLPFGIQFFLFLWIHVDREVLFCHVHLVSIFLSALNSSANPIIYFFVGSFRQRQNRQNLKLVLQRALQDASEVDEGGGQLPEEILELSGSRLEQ
Experimental: 1. CHO-K1 cells transfected with human MrgX1, simian MrgX1, human MrgX2 and simian MrgX2 receptors or a control receptor at a density 1-3×10^6 cells/mL were washed with phosphate-buffered saline.
2. Cells were loaded with 2 μM Fura-2 and analyzed with respect to the rise in intracellular calcium in the presence or absence of varying concentration of test compound.
3. The response was compared to that elicited by the application of the standard reference ligands BAM22 or Cortistatin-14 at 100 nM.
4. Intracellular free calcium concentrations were calculated using the formula:
[formula] • where Kd for Fura-2 is 224 nM, Fmax is the fluorescence in the presence of 0.04% Triton-X100 and Fmin is the fluorescence obtained after the addition of 5 mM EGTA in 30 mM Tris-HCl, pH7.4.

human MrgX1 receptor [2] = target: T2, human MrgX1 receptor; assay: Receptor Selection and Amplification Technology (R-SAT) functional assay, transfected NIH3T3 cells; type: cell-based; set-up: expressed in transfected cells; host or cells: NIH3T3; settings: for EC50 / Human-MrgX1 pEC50: pEC50 = negative log of molar EC50; for Human-MrgX1 Eff(%): percent maximal activation relative to Bam22
Experimental: as §1, §2, §3

human MrgX2 receptor = target: T3, human MrgX2 receptor (Homo sapiens, UniProt Q96LB1); assay: as above; type: cell-based; settings: for Human-MrgX2 Eff(%): percent maximal activation relative to STIA
T3 construct: expressed in transfected cells; host or cells: NIH3T3
T3 sequence (Q96LB1 1-330): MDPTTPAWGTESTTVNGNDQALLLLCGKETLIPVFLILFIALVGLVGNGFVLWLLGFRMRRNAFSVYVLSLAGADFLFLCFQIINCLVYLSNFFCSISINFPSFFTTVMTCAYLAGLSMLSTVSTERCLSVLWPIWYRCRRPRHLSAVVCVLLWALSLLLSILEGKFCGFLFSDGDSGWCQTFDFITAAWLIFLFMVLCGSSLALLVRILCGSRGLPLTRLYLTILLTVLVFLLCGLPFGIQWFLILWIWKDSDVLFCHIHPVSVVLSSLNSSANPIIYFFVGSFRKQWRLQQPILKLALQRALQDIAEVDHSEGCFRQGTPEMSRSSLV
Experimental: as §1, §2, §3

Compound	Monkey-MrgX2 Eff(%) (simian MrgX2 receptor)	Emax (simian MrgX1 receptor) [%]	MrgX1 pEC50 (human MrgX1 receptor [1])	MrgX1 Eff % (human MrgX1 receptor [1]) [%]	EC50 (human MrgX1 receptor [2]) [nM]	Human-MrgX1 Eff(%) (human MrgX1 receptor [2])	Human-MrgX2 pEC50 (human MrgX2 receptor)	Human-MrgX2 Eff(%) (human MrgX2 receptor)	Human-MrgX1 pEC50 (human MrgX1 receptor [2])	Monkey-MrgX2 pEC50 (simian MrgX2 receptor)
N=C(N)NCCC[C@@H](C(N)=O)n1c(-c2cccc(Oc3ccccc3)c2)nc2cc(C(=O)NCCc3ccccn3)ccc21 [Compound 3, (α^1R)-α-[3-[(aminoiminomethyl)amino]propyl]-2-(3-phenoxyphenyl)-5-[[[2-(2-pyridinyl)ethyl]amino]carbonyl]-1H-benzimidazole-1-acetamide]	4	160	6.4	106	158	176	nr	4	–	–
N=C(N)NCCCC(C(N)=O)n1c(-c2cccc(Oc3ccccc3)c2)nc2cc(C(=O)Nc3nccs3)ccc21 (stereo not drawn) [Compound 31]	–	–	–	–	–	73	nr	6	5.6	–
CCCCNC(=O)c1ccc2c(c1)nc(-c1cccc(Oc3ccccc3)c1)n2C(CCCNC(=N)N)C(N)=O (stereo not drawn) [Compound 30]	–	–	–	–	–	150	nr	11	6.2	–
Cc1cccc(N2CCN(C(=O)c3ccc4c(c3)nc(-c3cccc(Oc5ccccc5)c3)n4[C@@H](CCCNC(=N)N)C(N)=O)CC2C)c1 (stereo partly drawn) [Compound 2, (α^1R)-α-[3-[(aminoiminomethyl)amino]propyl]-5-[[3-methyl-4-(3-methylphenyl)-1-piperazinyl]carbonyl]-2-(3-phenoxyphenyl)-1H-benzimidazole-1-acetamide]	22	316	7.6	92	631	220	nr	17	–	–
N=C(N)NCCC[C@@H](C(N)=O)n1c(-c2cccc(Oc3ccccc3)c2)nc2cc(C(=O)N3CCN(c4ccc(F)cc4)CC3)ccc21 [Compound 1, (α^1R)-α-[3-[(aminoiminomethyl)amino]propyl]-5-[[4-(4-fluorophenyl)-1-piperazinyl]carbonyl]-2-(3-phenoxyphenyl)-1H-benzimidazole-1-acetamide]	25	148	6.6	88	1000	146	nr	−1	–	<4.5
CN(CCc1ccccn1)C(=O)c1ccc2c(c1)nc(-c1cccc(Oc3ccccc3)c1)n2[C@@H](CCCNC(=N)N)C(N)=O [Compound 4, (α^1R)-α-[3-[(aminoiminomethyl)amino]propyl]-5-[[methyl[2-(2-pyridinyl)ethyl]amino]carbonyl]-2-(3-phenoxyphenyl)-1H-benzimidazole-1-acetamide]	18	107	6.7	112	1000	325	nr	46	–	–
COc1ccc(NC(=O)c2ccc3c(c2)nc(-c2cccc(Oc4ccccc4)c2)n3C(CCCNC(=N)N)C(N)=O)cc1 (stereo not drawn) [Compound 27]	–	–	–	–	–	133	nr	4	6.1	–
